Measured values: article PMC5218480 (PLoS ONE, 2017)

System: MV-4-11 cells
Experiment: Gene expression microarray analysis (Affymetrix PrimeView) and GSEA
Type: cell-based, human
Parameters: RFU PODN (11730768_x_at) / Fold change /veh PODN (11730768_x_at) / RFU LINC00158 (11744669_a_at) / Fold change /veh LINC00158 (11744669_a_at) / RFU DUSP10 (11751237_a_at) / Fold change /veh DUSP10 (11751237_a_at) / RFU ID3 (11757404_x_at) / Fold change /veh ID3 (11757404_x_at) / RFU PLEKHG5 (11737974_s_at) / Fold change /veh PLEKHG5 (11737974_s_at) / RFU LRRC4B (11730491_at) / Fold change /veh LRRC4B (11730491_at) / RFU GIMAP4 (11747438_a_at) / Fold change /veh GIMAP4 (11747438_a_at) / RFU KRT8 (11758183_x_at) / Fold change /veh KRT8 (11758183_x_at) / RFU CNN1 (11734310_a_at) / Fold change /veh CNN1 (11734310_a_at) / RFU VPS37D (11726825_at) / Fold change /veh VPS37D (11726825_at) / RFU C10orf10 (11716522_x_at) / Fold change /veh C10orf10 (11716522_x_at) / RFU KIR2DL2 /// KIR2DL4 /// KIR2DL5A /// KIR2DL5B /// KIR2DS1 /// KIR2DS2 /// KIR2DS3 /// KIR2DS4 /// KIR3DL3 /// KIR3DL3 /// KIR3DS1 (11738374_at) / Fold change /veh KIR2DL2 /// KIR2DL4 /// KIR2DL5A /// KIR2DL5B /// KIR2DS1 /// KIR2DS2 /// KIR2DS3 /// KIR2DS4 /// KIR3DL3 /// KIR3DL3 /// KIR3DS1 (11738374_at) / RFU C1QL1 (11718748_at) / Fold change /veh C1QL1 (11718748_at) / RFU TMPRSS4 (11747572_a_at) / Fold change /veh TMPRSS4 (11747572_a_at) / RFU HAMP (11756126_x_at) / Fold change /veh HAMP (11756126_x_at) / RFU RNFT2 (11725882_a_at) / Fold change /veh RNFT2 (11725882_a_at) / RFU NR4A2 (11747474_a_at) / Fold change /veh NR4A2 (11747474_a_at) / RFU ABCC12 (11746883_a_at) / Fold change /veh ABCC12 (11746883_a_at) / RFU TMEM136 (11760407_x_at) / Fold change /veh TMEM136 (11760407_x_at) / RFU CLDN22 /// WWC2 (11732394_at) / Fold change /veh CLDN22 /// WWC2 (11732394_at) / RFU HLA-DPB1 (11760878_x_at) / Fold change /veh HLA-DPB1 (11760878_x_at) / RFU SPINT1 (11716480_a_at) / Fold change /veh SPINT1 (11716480_a_at) / RFU GAP43 (11754022_s_at) / Fold change /veh GAP43 (11754022_s_at) / RFU A4GNT (11735810_at) / Fold change /veh A4GNT (11735810_at) / RFU PRB3 (11715151_x_at) / Fold change /veh PRB3 (11715151_x_at) / RFU TUBB4B (11761932_at) / Fold change /veh TUBB4B (11761932_at) / RFU CAPN14 (11732068_a_at) / Fold change /veh CAPN14 (11732068_a_at) / RFU TMCC2 (11721928_a_at) / Fold change /veh TMCC2 (11721928_a_at) / RFU IRGQ (11745062_a_at) / Fold change /veh IRGQ (11745062_a_at) / RFU FAM174B (11720279_a_at) / Fold change /veh FAM174B (11720279_a_at) / RFU TMPRSS4 (11748680_a_at) / Fold change /veh TMPRSS4 (11748680_a_at) / RFU FAM212B (11763350_a_at) / Fold change /veh FAM212B (11763350_a_at) / RFU PLEKHG5 (11743358_a_at) / Fold change /veh PLEKHG5 (11743358_a_at) / RFU ZSCAN30 (11745921_a_at) / Fold change /veh ZSCAN30 (11745921_a_at) / RFU CMKLR1 (11741424_a_at) / Fold change /veh CMKLR1 (11741424_a_at) / RFU LOC101060620 /// MAPK8IP1 (11723275_at) / Fold change /veh LOC101060620 /// MAPK8IP1 (11723275_at) / RFU SPTSSB (11747773_x_at) / Fold change /veh SPTSSB (11747773_x_at) / RFU PRSS12 (11739890_at) / Fold change /veh PRSS12 (11739890_at) / RFU BIN1 (11741810_x_at) / Fold change /veh BIN1 (11741810_x_at) / RFU WNT11 (11732464_a_at) / Fold change /veh WNT11 (11732464_a_at) / RFU C10orf10 (11716521_a_at) / Fold change /veh C10orf10 (11716521_a_at) / RFU C5orf56 (11738089_at) / Fold change /veh C5orf56 (11738089_at) / RFU CYB561 (11721691_x_at) / Fold change /veh CYB561 (11721691_x_at) / RFU ANKRD19P (11752326_a_at) / Fold change /veh ANKRD19P (11752326_a_at) / RFU OR2T12 /// OR2T33 /// OR2T8 (11738714_s_at) / Fold change /veh OR2T12 /// OR2T33 /// OR2T8 (11738714_s_at) / RFU VCAN (11748164_a_at) / Fold change /veh VCAN (11748164_a_at) / RFU JSRP1 (11732532_at) / Fold change /veh JSRP1 (11732532_at) / RFU KRTAP10-11 (11738290_x_at) / Fold change /veh KRTAP10-11 (11738290_x_at) / RFU MYO3A (11730013_a_at) / Fold change /veh MYO3A (11730013_a_at) / RFU EBF3 (11725865_a_at) / Fold change /veh EBF3 (11725865_a_at) / RFU CAMK2N1 (11719241_x_at) / Fold change /veh CAMK2N1 (11719241_x_at) / RFU C5orf56 (11738088_a_at) / Fold change /veh C5orf56 (11738088_a_at) / RFU OLFML3 (11715873_a_at) / Fold change /veh OLFML3 (11715873_a_at) / RFU LOC100653217 /// NTM (11731650_a_at) / Fold change /veh LOC100653217 /// NTM (11731650_a_at) / RFU MAPK11 (11762145_a_at) / Fold change /veh MAPK11 (11762145_a_at) / RFU FIZ1 (11724087_x_at) / Fold change /veh FIZ1 (11724087_x_at) / RFU OASL (11726364_x_at) / Fold change /veh OASL (11726364_x_at) / RFU SOX15 (11748057_x_at) / Fold change /veh SOX15 (11748057_x_at) / RFU CD79A (11719716_a_at) / Fold change /veh CD79A (11719716_a_at) / RFU HIST1H1D (11736915_at) / Fold change /veh HIST1H1D (11736915_at) / RFU CASKIN2 (11723855_a_at) / Fold change /veh CASKIN2 (11723855_a_at) / RFU LOC730098 (11760151_x_at) / Fold change /veh LOC730098 (11760151_x_at) / RFU OR4N2 (11742367_at) / Fold change /veh OR4N2 (11742367_at) / RFU PRRT2 (11749266_a_at) / Fold change /veh PRRT2 (11749266_a_at) / RFU SNX32 (11753110_a_at) / Fold change /veh SNX32 (11753110_a_at) / RFU CDHR5 (11726645_a_at) / Fold change /veh CDHR5 (11726645_a_at) / RFU RCAN1 (11760418_a_at) / Fold change /veh RCAN1 (11760418_a_at) / RFU FAM167A (11723789_a_at) / Fold change /veh FAM167A (11723789_a_at) / RFU FAM26E (11764081_at) / Fold change /veh FAM26E (11764081_at) / RFU ISYNA1 (11749810_s_at) / Fold change /veh ISYNA1 (11749810_s_at) / RFU ACY1 (11761880_at) / Fold change /veh ACY1 (11761880_at) / RFU 11764098_at / Fold change /veh 11764098_at / RFU SAMD14 (11745864_x_at) / Fold change /veh SAMD14 (11745864_x_at) / RFU NPB (11741838_a_at) / Fold change /veh NPB (11741838_a_at) / RFU TMPRSS6 (11731388_a_at) / Fold change /veh TMPRSS6 (11731388_a_at) / RFU KRTAP10-2 (11738614_at) / Fold change /veh KRTAP10-2 (11738614_at) / RFU ARHGAP8 /// PRR5-ARHGAP8 (11727945_x_at) / Fold change /veh ARHGAP8 /// PRR5-ARHGAP8 (11727945_x_at) / RFU KRTAP5-7 /// NADSYN1 (11734609_at) / Fold change /veh KRTAP5-7 /// NADSYN1 (11734609_at) / RFU RASL12 (11751679_a_at) / Fold change /veh RASL12 (11751679_a_at) / RFU CDKN2B (11736163_a_at) / Fold change /veh CDKN2B (11736163_a_at) / RFU PRF1 (11729649_at) / Fold change /veh PRF1 (11729649_at) / RFU, ZNF638 /// ZNF638-IT1 / Fold change vs veh, ZNF638 /// ZNF638-IT1 / RFU, PANK3 / Fold change vs veh, PANK3 / RFU, SH3YL1 / Fold change vs veh, SH3YL1 / RFU, ZEB2 / Fold change vs veh, ZEB2 / RFU, NRIP1 / Fold change vs veh, NRIP1 / RFU, PTTG1IP / Fold change vs veh, PTTG1IP / RFU, CAPN2 / Fold change vs veh, CAPN2 / RFU, MED14 / Fold change vs veh, MED14 / RFU, SNORA58 / Fold change vs veh, SNORA58 / RFU, C1orf63 / Fold change vs veh, C1orf63 / RFU, LRRFIP1 / Fold change vs veh, LRRFIP1 / RFU, NDUFAF7 / Fold change vs veh, NDUFAF7 / RFU, SLC12A2 / Fold change vs veh, SLC12A2 / RFU, IBTK / Fold change vs veh, IBTK / RFU, ESF1 / Fold change vs veh, ESF1 / Fold change vs veh, TMEM50B / RFU, TAOK1 / Fold change vs veh, TAOK1 / RFU, ACBD3 / Fold change vs veh, ACBD3 / RFU, TMA16 / Fold change vs veh, TMA16 / RFU, RWDD3 / Fold change vs veh, RWDD3 / RFU, BCAT1 / Fold change vs veh, BCAT1 / RFU, EDEM3 / Fold change vs veh, EDEM3 / RFU, TMEM33 / Fold change vs veh, TMEM33 / RFU, WDR75 / Fold change vs veh, WDR75 / RFU, AHCTF1 / Fold change vs veh, AHCTF1 / RFU, TFRC / Fold change vs veh, TFRC / RFU, ZDHHC17 / Fold change vs veh, ZDHHC17 / RFU, NOM1 / Fold change vs veh, NOM1 / RFU, ARL8B / Fold change vs veh, ARL8B / RFU, ZBTB11 / Fold change vs veh, ZBTB11 / RFU, TAMM41 / Fold change vs veh, TAMM41 / RFU, KIAA1704 /// LOC100996395 / Fold change vs veh, KIAA1704 /// LOC100996395 / RFU, ING1 / Fold change vs veh, ING1 / RFU, TRMT61B / Fold change vs veh, TRMT61B / RFU, FUBP3 / Fold change vs veh, FUBP3 / RFU, TP53 / Fold change vs veh, TP53 / RFU, TNKS2 / Fold change vs veh, TNKS2 / RFU, ZFP14 / Fold change vs veh, ZFP14 / RFU, ACTR2 / Fold change vs veh, ACTR2 / RFU, PPP3R1 / Fold change vs veh, PPP3R1 / RFU, PIK3R1 / Fold change vs veh, PIK3R1 / RFU, HNRNPA1 / Fold change vs veh, HNRNPA1 / RFU, RNF170 / Fold change vs veh, RNF170 / RFU, ZNF28 / Fold change vs veh, ZNF28 / RFU, RNGTT / Fold change vs veh, RNGTT / RFU, OGT / Fold change vs veh, OGT / RFU, BRD1 / Fold change vs veh, BRD1 / RFU, MARS / Fold change vs veh, MARS / RFU, ZNF655 / Fold change vs veh, ZNF655 / RFU, FAHD1 / Fold change vs veh, FAHD1 / RFU, BDP1 / Fold change vs veh, BDP1 / RFU, LRRCC1 / Fold change vs veh, LRRCC1 / RFU, ARID1A / Fold change vs veh, ARID1A / RFU, ZNF146 / Fold change vs veh, ZNF146 / RFU, ZNF330 / Fold change vs veh, ZNF330 / RFU, GPN3 / Fold change vs veh, GPN3 / RFU, C9orf123 / Fold change vs veh, C9orf123 / RFU, N4BP2L2 / Fold change vs veh, N4BP2L2 / RFU, ARFIP1 / Fold change vs veh, ARFIP1 / RFU, FAM179B / Fold change vs veh, FAM179B / RFU, BCL10 / Fold change vs veh, BCL10 / RFU, UHRF1BP1L / Fold change vs veh, UHRF1BP1L / RFU, BET1 / Fold change vs veh, BET1 / RFU, CNOT2 / Fold change vs veh, CNOT2 / RFU, ZNF268 / Fold change vs veh, ZNF268 / Fold change vs veh, ZNF507 / RFU, DGCR2 / Fold change vs veh, DGCR2 / RFU, WDSUB1 / Fold change vs veh, WDSUB1 / Fold change vs veh, HSP90B1 /// MIR3652 / RFU, ADSS / Fold change vs veh, ADSS / RFU, GK / Fold change vs veh, GK / RFU, ZNF148 / Fold change vs veh, ZNF148 / RFU, TAF9 / Fold change vs veh, TAF9 / RFU, SLC1A5 / Fold change vs veh, SLC1A5 / RFU, SLMO2 / Fold change vs veh, SLMO2 / RFU, ABCC4 / Fold change vs veh, ABCC4 / RFU, LOC101060439 /// RAP1B / Fold change vs veh, LOC101060439 /// RAP1B / RFU, RFX7 / Fold change vs veh, RFX7 / RFU, GTPBP10 / Fold change vs veh, GTPBP10 / RFU, CNEP1R1 / Fold change vs veh, CNEP1R1 / RFU, BIVM-ERCC5 /// ERCC5 / Fold change vs veh, BIVM-ERCC5 /// ERCC5 / RFU, ILF3 / Fold change vs veh, ILF3 / RFU 11762660_at / Fold change /veh 11762660_at / RFU VCAN (11757783_s_at) / Fold change /veh VCAN (11757783_s_at) / RFU DDX43 (11728927_at) / Fold change /veh DDX43 (11728927_at) / RFU KRT8 (11758188_x_at) / Fold change /veh KRT8 (11758188_x_at) / RFU NKD1 (11759106_at) / Fold change /veh NKD1 (11759106_at) / RFU SRD5A1 (11742802_a_at) / Fold change /veh SRD5A1 (11742802_a_at) / RFU TPSAB1 /// TPSB2 (11721975_s_at) / Fold change /veh TPSAB1 /// TPSB2 (11721975_s_at) / RFU GSTM3 (11746129_a_at) / Fold change /veh GSTM3 (11746129_a_at) / RFU IL23R (11737362_x_at) / Fold change /veh IL23R (11737362_x_at) / RFU TMEM51 (11727254_a_at) / Fold change /veh TMEM51 (11727254_a_at) / RFU PIWIL2 (11732686_x_at) / Fold change /veh PIWIL2 (11732686_x_at) / RFU ORM1 (11744905_x_at) / Fold change /veh ORM1 (11744905_x_at) / RFU CCDC152 (11743942_at) / Fold change /veh CCDC152 (11743942_at) / RFU ECM1 (11717891_a_at) / Fold change /veh ECM1 (11717891_a_at) / RFU IL23R (11748794_a_at) / Fold change /veh IL23R (11748794_a_at) / RFU TNFAIP8L3 (11732012_x_at) / Fold change /veh TNFAIP8L3 (11732012_x_at) / RFU MBOAT4 (11741988_at) / Fold change /veh MBOAT4 (11741988_at) / RFU 11764193_at / Fold change /veh 11764193_at / RFU TMEM53 (11763286_at) / Fold change /veh TMEM53 (11763286_at) / RFU MAGEB2 (11727129_at) / Fold change /veh MAGEB2 (11727129_at) / RFU TMEM200A (11744735_a_at) / Fold change /veh TMEM200A (11744735_a_at) / RFU CCDC152 (11751479_a_at) / Fold change /veh CCDC152 (11751479_a_at) / RFU FAM211A (11726209_a_at) / Fold change /veh FAM211A (11726209_a_at) / RFU RGS16 (11746705_a_at) / Fold change /veh RGS16 (11746705_a_at) / RFU VCAN (11755009_s_at) / Fold change /veh VCAN (11755009_s_at) / RFU RHOB (11743442_s_at) / Fold change /veh RHOB (11743442_s_at) / RFU RGS16 (11720943_a_at) / Fold change /veh RGS16 (11720943_a_at) / RFU RGS16 (11720944_at) / Fold change /veh RGS16 (11720944_at) / RFU, VPS4B / Fold change vs veh, VPS4B / RFU, CREB1 / Fold change vs veh, CREB1 / RFU, DNAJC13 / Fold change vs veh, DNAJC13 / RFU, GNAQ / Fold change vs veh, GNAQ / RFU, CDK5R1 / Fold change vs veh, CDK5R1 / RFU, ZRANB3 / Fold change vs veh, ZRANB3 / RFU, CUL4A / Fold change vs veh, CUL4A / RFU, CCNY / Fold change vs veh, CCNY / RFU, UFL1 / Fold change vs veh, UFL1 / RFU, COG3 / Fold change vs veh, COG3 / RFU, DIAPH2 / Fold change vs veh, DIAPH2 / RFU, SKA2 / Fold change vs veh, SKA2 / RFU, AFF3 / Fold change vs veh, AFF3 / RFU, LMF1 / Fold change vs veh, LMF1 / RFU, IPO11 / Fold change vs veh, IPO11 / RFU, DFFB / Fold change vs veh, DFFB / RFU, FOXP1 / Fold change vs veh, FOXP1 / RFU, CARD8 / Fold change vs veh, CARD8 / RFU, STRN3 / Fold change vs veh, STRN3 / RFU, ADK / Fold change vs veh, ADK / RFU, RASSF2 / Fold change vs veh, RASSF2 / RFU, WIPF1 / Fold change vs veh, WIPF1 / RFU, LARP1B / Fold change vs veh, LARP1B / RFU, RASA1 / Fold change vs veh, RASA1 / RFU, RB1 / Fold change vs veh, RB1 / RFU, PPFIA1 / Fold change vs veh, PPFIA1 / RFU, MAT2A / Fold change vs veh, MAT2A / RFU, CCT5 / Fold change vs veh, CCT5 / RFU, WDR92 / Fold change vs veh, WDR92 / RFU, CUX1 / Fold change vs veh, CUX1 / RFU, TTC7A / Fold change vs veh, TTC7A / RFU, TMEM135 / Fold change vs veh, TMEM135 / RFU, DEPTOR / Fold change vs veh, DEPTOR / RFU, CPM / Fold change vs veh, CPM / RFU, DNAJB6 / Fold change vs veh, DNAJB6 / RFU, CACNA2D3 / Fold change vs veh, CACNA2D3 / RFU, DTX4 / Fold change vs veh, DTX4 / RFU, TFCP2 / Fold change vs veh, TFCP2 / RFU, GMCL1 /// GMCL1P1 / Fold change vs veh, GMCL1 /// GMCL1P1 / RFU, AEBP2 / Fold change vs veh, AEBP2 / RFU, SNHG1 /// SNORD22 /// SNORD25 /// SNORD26 /// SNORD27 /// SNORD28 /// SNORD29 /// SNORD31 / Fold change vs veh, SNHG1 /// SNORD22 /// SNORD25 /// SNORD26 /// SNORD27 /// SNORD28 /// SNORD29 /// SNORD31 / Fold change (Aza/veh), C12orf56 (ProbeSet 11735607_a_at) / Fold change (ACY-1035/veh), C12orf56 (ProbeSet 11735607_a_at) / Fold change (Aza/veh), FGFR1OP (ProbeSet 11751329_s_at) / Fold change (ACY-1035/veh), FGFR1OP (ProbeSet 11751329_s_at) / Fold change (Aza/veh), VPS36 (ProbeSet 11739960_a_at) / Fold change (ACY-1035/veh), VPS36 (ProbeSet 11739960_a_at) / RFU SYPL1 (11715823_x_at) / Fold change /veh SYPL1 (11715823_x_at) / RFU IGFBP7 (11715501_s_at) / Fold change /veh IGFBP7 (11715501_s_at) / RFU REEP3 (11722064_at) / Fold change /veh REEP3 (11722064_at) / RFU IGLL1 (11728026_x_at) / Fold change /veh IGLL1 (11728026_x_at): dose or concentration left out as unconfirmed
Conditions: MV-4-11 cells, 48 hours

In the case of `Nc1ncn([C@@H]2O[C@H](CO)[C@@H](O)[C@H]2O)c(=O)n1` [azacitidine], the “Fold change /veh OLFML3 (11715873_a_at)” value is reported as 0.98.
